Source: US20120276064A1, “METHODS AND COMPOSITIONS FOR REJUVENATION AND EXPANSION OF STEM CELLS” (priority 2011, published 2012)

Key:
functional MuSCs = assay: Limiting dilution analysis and model prediction of functional MuSCs; parameters: species or system mouse
Excerpt: Limiting dilution analysis and model prediction. To calculate the effective number of functional MuSCs in any transplanted cell population, the transplant engraftment efficiency was related to the number of cells transplanted (across a range of transplanted cell numbers) using an exponential stem-cell limiting dilution model:
% engraftment=100%·[1-exp [(βsample)·(# cells transplantedsample)] [eqn. 1]
where β is an exponential coefficient fit from experimental data. This model fit well to experimental data from a variety of cell conditions (R^2=0.89-1.00; see FIG. 16C). Using this model, the number of functional MuSCs (e.g. defined as equivalent to freshly isolated young MuSCs) within any given population can be calculated:
# Functional MuSCssample=(βSample/βYng,Fresh)˜(# cellssample). [eqn. 2]
The number of functional MuSCs arising from the progeny of each MuSC initially seeded in the cell culture experiments can be predicted by taking into account the measured cell proliferation in culture (see FIG. 2D). The transplant engraftment percentage of the cell culture progeny from any starting MuSC cell number can be predicted using the measured cell proliferation data and the fit exponential model parameter β:
Predicted % engraftment=100%·[1-exp [(βsample)·(starting cell #)·(proliferation fold-changesample)]]. [Eqn. 3]

[1] = test system: p21, Myogenin, Pax7 transcripts in MuSCs; assay: Quantitative real-time PCR gene expression in hydrogel-cultured MuSCs; assay type: cell-based, mouse; conditions: old MuSCs, soft hydrogel, 10 μM, one week
Description: MuSC culture and treatment. Following isolation, MuSCs were pelleted and resuspended into myogenic cell culture medium containing DMEM/F10 (50:50), 15% FBS, 2.5 ng/ml bFGF, and 1% penicillin/streptomycin. MuSCs were seeded at 1000 cells per well (24-well plate size wells, 2.0 cm^2 surface area) on laminin-tethered hydrogels of either 12 kPa (soft) or ˜10^6 kPa (rigid) rigidities. Cells were maintained at 37° C. in 5% CO2. Media was changed daily. For proliferation and p38 inhibition studies, the following ligands/inhibitors were supplemented in the myogenic medium and maintained consistently through the experiment: 25 ng/ml Wnt7a (R&D Systems, Minneapolis, Minn.), 25 ng/ml Jagged1-Fc (R&D Systems, Minneapolis, Minn.), 10 nM tautomycetin (PP1 inhibitor; Tocris Bioscience, Ellisville, Mo.), 10 μM SB202190 or 10 μM SB203580 (p38 inhibitors; EMD Chemicals, Gibbstown, N.J.), 1 μM SB431542 (ALK4/5/7 inhibitor; Tocris Bioscience), or 0.1% DMSO carrier control. All MuSC cell culture assays and transplantations were performed after one week of culture unless noted otherwise.
Quantitative real-time PCR. RNA was isolated from freshly isolated and cultured cells using the RNeasy Micro kit (Qiagen, Valencia, Calif.). Total RNA from each sample was reverse transcribed using the High Capacity cDNA RT kit (Applied Biosystems, Carlsbad, Calif.). cDNA was subjected to real-time PCR using a SYBR Green PCR Master Mix (Applied Biosystems). Real-time PCR was performed using an ABI 7900HT Real Time PCR system and software (Applied Biosystems). Samples were cycled at 95° C. for 10 min and then 40 cycles of 95° C. for 15 sec and 60° C. for 1 min. To quantify relative transcript levels, the 2^−ΔΔCt method was used, and freshly isolated young MuSCs were used as reference value (plotted as 1 in all graphs). Gapdh was used as a normalizing gene. Primer sequences for Gapdh, p21, myogenin, and Pax7 were obtained from literature or using NIH Primer3.

[2] = test system: myogenin protein expression in young MuSCs; assay: Myogenin immunofluorescence analysis of hydrogel-cultured MuSCs; assay type: cell-based, mouse; conditions: soft hydrogel, 10 μM, one week, compared to control
Description: Myogenin immunofluorescence analysis. MuSCs from young mice were isolated and cultured on 12 kPa hydrogels with either 0.1% DMSO control or 10 μM SB202190. After one week of culture, cells were fixed with 0.5% paraformaldehyde in PBS. Fixed cells were blocked with 20% goat serum and 0.5% Triton X100 in PBS. Cells were stained with anti-myogenin antibody (Santa Cruz Biotechnology, Santa Cruz, Calif.) and then an AlexaFluor594-conjugated secondary antibody (Invitrogen). Nuclei were stained with Topro3 (Invitrogen)the Immunofluorescence images were acquired using a LSM510 laser-scanning confocal microscope (Carl Zeiss Microimaging) with a Plan NeoFluar 20x/0.75NA objective. Digital images were captured using LSM510 software. Images were composed and edited in Photoshop software (Adobe). Background was reduced and contrast was enhanced equivalently across all images of the same stain. Nuclear regions were identified by Topro3 staining using MetaMorph software (Molecular Devices, Sunnyvale, Calif.). Within each nuclear region, the myogenin intensity was integrated using MetaMorph software. Nuclear myogenin intensities from each condition were plotted in a log-scale histogram to establish a threshold defining myogenin-positive cells.

[3] = test system: tibialis anterior muscle of notexin-injured old mice; assay: In vivo force measurements after systemic SB202190 administration; parameters: species or system mouse; conditions: 5 mg/kg IP, 5 daily injections starting one day after notexin injury, two months post-injury
Description: Systemic SB202190 administration. Old mice were systemically administered SB202190 (5 mg/kg body weight in 0.9% NaCl/H2O) with five daily doses by IP injection starting at one day after NTX injury.
In vivo force measurements. Force measurements were performed on tibialis anterior (TA) muscles in vivo in anesthetized mice, as previously described. The hindlimb was shaved and fixed to a frame to immobilize it without compromising the blood supply to the leg. The animal was warmed on an isothermal pad and by heat lamp. A small incision was placed in the skin directly above the TA muscle. The distal tendon was sutured to a thin metal hook and then attached to a force transducer (300C-LR; Aurora Scientific, Aurora, Ontario). Distal tendons from all front lower hindlimb muscles other than TA were cut, leaving TA isolated during attachment to the force transducer. The muscles and tendons were kept moist by periodic wetting with saline (0.9% sodium chloride) solution. […] Muscle force and synchronization pulses were recorded for 2 seconds immediately prior to the stimulation and 3 seconds after the end of the stimulation. […] Data were collected with a PCI-6251 data acquisition card (National Instruments, Austin, Tex.) and analyzed in Matlab. Specific force values were calculated by normalizing the force measurements by the muscle physiological cross-sectional area (PCSA), as described previously: […]

Q: With `Oc1ccc(-c2nc(-c3ccncc3)c(-c3ccc(F)cc3)[nH]2)cc1` [SB202190] as the molecule, how does the “Proportion of functional MuSCs” value (functional MuSCs; old MuSCs on soft hydrogels with SB treatment, limiting dilution model) read?
A: 9%

Q: What about the “Predicted transplant engraftment of the culture progeny of 10 old MuSCs” value (functional MuSCs; old MuSCs treated with SB, model prediction) of the same molecule?
A: 76%

Q: And the “Increase in absolute number of functional stem cells relative to freshly isolated old MuSCs” value (functional MuSCs; old MuSCs, soft hydrogel + SB, one week, mathematical modeling)?
A: 7 fold

Q: What about the “Improvement in the proportion of functional MuSCs” value (functional MuSCs; old MuSCs, soft hydrogel with vs without SB, limiting dilution model) of the same molecule?
A: 10 fold

Q: What about the “Transcription of the MuSC transcription factor Pax7” value [1] of the same molecule?
A: increased

Q: What about the “Transcription of the cell cycle inhibitor p21” value [1] of the same molecule?
A: decreased

Q: What about the “Transcription of the commitment marker Myogenin” value [1] of the same molecule?
A: decreased

Q: What about the “Percentage of myogenin+ cells” value [2] of the same molecule?
A: greatly diminished

Q: What about the “Recovery of twitch and tetanus forces” value [3] of the same molecule?
A: aided recovery
